Data reported in patent US20260308278A1, “ANTIBODY THAT BINDS TO C3bBb” (Hoffmann-La Roche Inc., priority 2023, published 2026).

What was measured:
classical pathway = test: Classical pathway hemolysis assay (Ab-sensitized sheep erythrocytes); format: cell-based, human
Protocol: Everything was prepared at RT except for the serum which was kept on ice so that the complement cascade would not start. Washed Ab-sensitized sheep erythrocytes (EA) were added to a V-shaped 96-well plate together with the dilution series of antibodies in a buffer appropriate for the classical pathway. Normal human serum was added at a final assay concentration of 2% and mixed gently with the other components. Complement activation was started by incubating the plates at 37° C. shaking continuously at 600 rpm to prevent the total sedimentation of the EAs. Hemolysis reaction was stopped after 30 min with the addition of ice-cold NaCl-solution containing 10 mM EDTA. Plates were centrifuged for 2 min at 1000×g at 4° C. to pellet the non-lysed EAs. […] Percentage of hemolysis was calculated: (OD test sample−OD BG or EDTA ctrl)/(OD full lysis−OD BG or EDTA ctrl)×100. IC50 values were calculated using Xlfit.

[1] = test system: alternative complement pathway in human serum; test: Wieslab Complement system Alternative pathway assay; format: biochemical; settings: comparative compounds, Table E14
Protocol: This kit is an enzyme immunoassay for the determination of functional alternative complement pathway in human serum.
It combines principles of a hemolytic assay for complement activation with the use of specific antibodies to detect the generated neoantigen, which is proportional to the functional activity of the complement pathway. […] This mixture was diluted 1:18 in a diluent with a specific blocker (so that only AP will be activated) and incubated for another 15 min at RT. Solution was added to a 96-well plate specifically coated with activators of the AP and incubated for 60 min at 37° C. Wells were washed and C5b-9 detected following the protocol.

[2] = test system: C3bBb from Macaca Fascicularis; test: Cross-reactivity hemolysis assay, Macaca Fascicularis; format: cell-based, Macaca Fascicularis (Cynomolgus); settings: 37° C., 20 min
C3 convertase (C3bBb) = molecular target: T1, C3 convertase (C3bBb) (Homo sapiens, UniProt P00751+P01024); test: BLI based C3b deposition assay; format: biochemical; settings: comparative compounds, Table E14
T1 construct: C3b fragment of complement component C3; from tissue; host or cells: plasma (factor B and factor D)
Protocol: In another experiment, the potency of the antibodies was assessed via a BLI based C3b deposition assay.
BLI based C3b deposition assay: The activated carbonyl group created upon C3 cleavage by the C3 convertase reacts and forms covalent adducts with nucleophiles in close proximity to the enzyme. We utilized this property to measure convertase activity by quantifying the C3b mass deposited on a BLI sensor loaded with C3bBb and exposed to C3.

[3] = test system: C3bBb from Chlorocebus sabaeus; test: Cross-reactivity hemolysis assay, Chlorocebus sabaeus; format: cell-based, Chlorocebus sabaeus (African Green Monkey); settings: RT, 20 min

T1 sequence (P01024 23-667 limits assumed): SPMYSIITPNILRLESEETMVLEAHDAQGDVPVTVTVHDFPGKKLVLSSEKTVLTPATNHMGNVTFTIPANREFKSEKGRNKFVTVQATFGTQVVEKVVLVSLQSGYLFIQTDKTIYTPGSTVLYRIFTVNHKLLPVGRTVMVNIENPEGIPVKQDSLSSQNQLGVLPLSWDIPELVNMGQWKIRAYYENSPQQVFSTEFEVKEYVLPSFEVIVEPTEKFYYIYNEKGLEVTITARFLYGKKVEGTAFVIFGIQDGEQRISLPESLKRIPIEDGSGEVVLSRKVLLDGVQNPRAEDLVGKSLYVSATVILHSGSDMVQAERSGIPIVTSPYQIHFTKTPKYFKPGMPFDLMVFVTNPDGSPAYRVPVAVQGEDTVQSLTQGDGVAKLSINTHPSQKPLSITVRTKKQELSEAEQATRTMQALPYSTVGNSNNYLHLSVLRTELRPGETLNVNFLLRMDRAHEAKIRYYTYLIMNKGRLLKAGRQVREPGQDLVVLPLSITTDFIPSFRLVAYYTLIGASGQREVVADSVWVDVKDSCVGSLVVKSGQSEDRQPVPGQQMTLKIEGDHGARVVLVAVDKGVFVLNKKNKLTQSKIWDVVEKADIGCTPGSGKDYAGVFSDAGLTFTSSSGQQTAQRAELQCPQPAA
T1 sequence (P01024 749-1663 limits assumed): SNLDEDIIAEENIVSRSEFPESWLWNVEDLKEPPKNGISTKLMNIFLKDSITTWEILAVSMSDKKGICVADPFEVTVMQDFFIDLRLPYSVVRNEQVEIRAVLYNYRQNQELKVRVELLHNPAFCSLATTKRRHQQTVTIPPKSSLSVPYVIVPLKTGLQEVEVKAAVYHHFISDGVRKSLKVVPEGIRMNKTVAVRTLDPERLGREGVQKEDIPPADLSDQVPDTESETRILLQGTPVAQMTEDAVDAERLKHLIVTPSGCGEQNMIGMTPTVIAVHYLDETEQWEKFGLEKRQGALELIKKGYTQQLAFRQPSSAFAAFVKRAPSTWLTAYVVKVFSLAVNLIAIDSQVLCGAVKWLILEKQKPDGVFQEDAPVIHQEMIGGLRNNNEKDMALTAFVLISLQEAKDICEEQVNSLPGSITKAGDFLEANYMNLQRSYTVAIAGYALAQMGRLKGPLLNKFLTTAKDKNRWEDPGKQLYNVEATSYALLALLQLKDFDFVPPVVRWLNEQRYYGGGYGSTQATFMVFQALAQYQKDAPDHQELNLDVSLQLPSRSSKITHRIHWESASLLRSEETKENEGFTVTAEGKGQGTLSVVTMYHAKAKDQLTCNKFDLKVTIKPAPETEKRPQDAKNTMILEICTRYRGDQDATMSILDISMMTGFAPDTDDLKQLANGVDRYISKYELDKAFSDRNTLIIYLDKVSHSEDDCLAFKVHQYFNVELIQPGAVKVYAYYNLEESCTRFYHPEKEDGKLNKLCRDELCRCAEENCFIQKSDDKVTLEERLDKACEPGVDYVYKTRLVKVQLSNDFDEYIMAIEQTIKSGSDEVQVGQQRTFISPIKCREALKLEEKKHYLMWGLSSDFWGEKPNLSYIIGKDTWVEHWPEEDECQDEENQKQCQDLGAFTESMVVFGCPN
T1 sequence (P00751 260-764 limits assumed): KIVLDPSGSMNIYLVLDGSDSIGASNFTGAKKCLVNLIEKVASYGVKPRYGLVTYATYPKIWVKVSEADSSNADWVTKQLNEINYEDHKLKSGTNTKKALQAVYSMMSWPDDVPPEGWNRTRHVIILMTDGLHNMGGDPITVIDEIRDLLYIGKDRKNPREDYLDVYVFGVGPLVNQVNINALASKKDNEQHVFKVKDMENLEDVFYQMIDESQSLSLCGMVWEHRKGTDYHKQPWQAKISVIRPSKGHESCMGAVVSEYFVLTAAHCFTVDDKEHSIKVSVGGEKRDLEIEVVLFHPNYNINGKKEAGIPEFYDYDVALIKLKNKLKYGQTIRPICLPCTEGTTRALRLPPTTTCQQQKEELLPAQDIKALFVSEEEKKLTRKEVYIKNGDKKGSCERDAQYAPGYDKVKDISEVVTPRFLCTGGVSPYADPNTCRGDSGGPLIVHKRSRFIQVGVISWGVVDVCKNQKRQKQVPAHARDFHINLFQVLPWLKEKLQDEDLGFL

Compound: CCO[C@H]1CCN(Cc2c(OC)cc(C)c3[nH]ccc23)[C@H](c2ccc(C(=O)O)cc2)C1 [LNP023, Iptacopan]
- inhibition of the classical pathway (classical pathway): does not inhibit the classical pathway

Compound: Pegcetacoplan [APL-2]
- IC50 [1]: 274 nM
- IC50 [2]: 316 nM
- IC50 (C3 convertase (C3bBb)): 200 nM
- IC50 [3]: 147 nM
- IC50 (classical pathway; 2% normal human serum, sheep erythrocytes): 1020 nM
